Converted amounts (≈) assume the structure as drawn.
Tests used:
[1] = test system: HSV-1; test: HSV Antiviral (ELISA) Assay; format: cell-based, herpes simplex virus type 1; conditions: Human alphaherpesvirus 1, Vero, Vero cells, HSV-1; read-out: IC50 Ug/ml HSV
Method in brief: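 Vero cells in DMEM/2% FBS pretreated with compound 30 min before HSV-1 infection (MOI 0.006), then ~24 h at 37 °C. Viral gD detected by ELISA with β-galactosidase secondary and 4-methylumbelliferyl-galactoside (ex 365/em 450 nm); IC50 from fluorescence versus untreated infected cells.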

[2] = test system: VZV strain Ellen; test: VZV Antiviral (ELISA) Assay; format: cell-based, varicella-zoster virus; conditions: Human alphaherpesvirus 3, Fibroblast, human foreskin fibroblast cells; for IC50: read-out: IC50 Ug/ml VZV; for inhibition at 10 µg/mL: read-out: % inhibition 10 ug/ml VZV, 10 ug/ml
Method in brief: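 HFF cells infected overnight with VZV Ellen at MOI <0.1, mixed with uninfected cells, were seeded with compound and grown 3 days at 37° C in DMEM/2% FBS. Viral glycoprotein II was detected by ELISA with β-galactosidase-linked secondary; IC50 from fluorescence versus no-compound wells.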

[3] = test system: HCMV wild-type; test: HCMV yield assay; format: cell-based, human cytomegalovirus; conditions: Human betaherpesvirus 5, Fibroblast, human foreskin fibroblasts; read-out: IC50 Ug/ml HCMV
Method in brief: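 HCMV wild-type infected human foreskin fibroblast monolayers at MOI typically 0.2 with varying compound concentrations; virus yield harvested at 3 days post-infection and titered on fibroblasts without inhibitor, plaques counted at 2 weeks. IC50 or IC90 = compound amount reducing yield titer by 50% or 90%.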

Row | IC50 [1] [µg/mL] | SMILES | IC50 [2] [µg/mL] | inhibition at 10 µg/mL [2] [%] | IC50 [3] [µg/mL]
1 | 25 (≈ 62 µM) | CC(=O)Nc1ccc(NC(=S)Nc2ccc(N3CCCCC3)c(Cl)c2)cc1 [Example 239, N-{4-[3-(3-Chloro-4-piperidin-1-yl-phenyl)-thioureido]-phenyl}-acetamide] | > 10 | 33 | > 10
2 | 15 (≈ 36.3 µM) | COc1cc(OC)c(C(F)(F)F)cc1NC(=S)Nc1ccc(NC(C)=O)cc1 [Example 131, N-{4-[3-(2,4-Dimethoxy-5-trifluoromethyl-phenyl)-thioureido]-phenyl}-acetamide] | > 10 | 53 | < 50
3 | 3 (≈ 8.58 µM) | COc1ccc(NC(=S)Nc2ccc(NC(C)=O)cc2)cc1Cl [Example 106, N-{4-[3-(3-Chloro-4-methoxy-phenyl)-thioureido]-phenyl}-acetamide] | > 10 | 20 | 7 (≈ 20 µM)
4 | > 50 | COc1cc(N2CCOCC2)c(NC(=S)Nc2ccc(NC(C)=O)cc2)cc1Cl [Example 226, N-{4-[3-(5-Chloro-4-methoxy-2-morpholin-4-yl-phenyl)-thioureido]-phenyl}-Acetamide] | > 10 | 35 | > 50

— patent publication US6335350B1, “Acetamide and substituted acetamide-containing thiourea inhibitors of herpes viruses” (American Home Products Corporation, priority 1998, dated 2002)
